One may read the IC50 as the midpoint of a concentration-inhibition curve.

Like-named read-outs stand apart in the source and are kept apart here.

This experiment has as its target T1, truncated human beta-secretase (residues 1-458, His6-tagged at the C-terminus) (Homo sapiens, UniProt P56817).
T1 construct: truncated human beta-secretase (residues 1-458, His6-tagged at the C-terminus); His6 (C); made in house; host or cells: insect cells D. melanogaster S2 (baculovirus expression system (so in the source))
In words: BACE fluorescence quench assay. It counts as biochemical.

[1] abbreviates: in vitro enzyme activity, BACE fluorescence assay, pH 4.5, read-out: IC50.

T1 sequence (P56817 22-458): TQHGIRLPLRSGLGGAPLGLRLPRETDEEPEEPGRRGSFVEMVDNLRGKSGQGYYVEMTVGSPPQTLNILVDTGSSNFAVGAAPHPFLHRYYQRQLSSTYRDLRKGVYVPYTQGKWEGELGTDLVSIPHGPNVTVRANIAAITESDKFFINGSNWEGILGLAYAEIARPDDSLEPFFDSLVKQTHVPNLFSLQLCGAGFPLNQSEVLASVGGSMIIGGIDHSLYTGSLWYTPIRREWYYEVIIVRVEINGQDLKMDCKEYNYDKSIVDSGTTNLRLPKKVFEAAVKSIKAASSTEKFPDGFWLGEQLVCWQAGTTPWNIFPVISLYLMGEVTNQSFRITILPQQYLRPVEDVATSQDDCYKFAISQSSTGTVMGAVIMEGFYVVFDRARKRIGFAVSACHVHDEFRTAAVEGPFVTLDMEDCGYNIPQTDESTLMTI

Turning to `CN1C(=O)C2(CC(c3ccc(Cl)cc3)Oc3ccc(Br)cc32)N=C1N` (stereo not drawn) [Compound 53, 2′-amino-6-bromo-2-(4-chlorophenyl)-1′-methylspiro[chroman-4,4′-imidazol]-5′(1′H)-one], the IC50 under setting [1] lay in the range of 10000 to 50000 nM.

`COCc1ccc(-c2ccc3c(c2)C2(CC(c4ccccc4)O3)N=C(N)N(C)C2=O)cc1` (stereo not drawn) [Compound 54, 2′-amino-6-(4-(methoxymethyl)phenyl)-1′-methyl-2-phenylspiro[chroman-4,4′-imidazol]-5′(1′H)-one] registered an IC50 of 10000 to 50000 nM.

For the compound `CCCCNC(=O)c1cccc(-c2ccc3c(c2)[C@]2(C[C@H](c4ccccc4)O3)N=C(N)N(C)C2=O)c1` [Compound 55a, 3-((2R,4S)-2′-amino-1′-methyl-5′-oxo-2-phenyl-1′,5′-dihydrospiro[chroman-4,4′-imidazole]-6-yl)-N-butylbenzamide], the IC50 under setting [1] was 10000 to 50000 nM.

In the case of `CCCCNC(=O)c1cccc(-c2ccc3c(c2)[C@]2(C[C@@H](c4ccccc4)O3)N=C(N)N(C)C2=O)c1` [Compound 55b, 3-((2S,4S)-2′-amino-1′-methyl-5′-oxo-2-phenyl-1′,5′-dihydrospiro[chroman-4,4′-imidazole]-6-yl)-N-butylbenzamide], the half-maximal inhibitory concentration (IC50) under setting [1] fell in the range of 10000 to 50000 nM.

Regarding `CN1C(=O)C2(CC(c3ccccc3)Oc3ccc(-c4ccc(C(F)(F)F)cc4)cc32)N=C1N` (stereo not drawn) [Compound 56, 2′-amino-1′-methyl-2-phenyl-6-(4-(trifluoromethyl)phenyl)spiro[chroman-4,4′-imidazol]-5′(1′H)-one], the IC50 lay within 10000 to 50000 nM.

Consider `CCCN1C(=O)C2(CC(c3ccccc3)Oc3ccc(Br)cc32)N=C1N` (stereo not drawn) [Compound 57, 2′-amino-6-bromo-2-phenyl-1′-propylspiro[chroman-4,4′-imidazol]-5′(1′H)-one], for which, under setting [1], the 50% inhibitory concentration (IC50) lay within 10000 to 50000 nM.

For the compound `CCCN1C(=O)[C@@]2(C[C@H](c3ccccc3)Oc3ccc(Br)cc32)N=C1N` [Compound 57a, (2R,4S)-2′-amino-6-bromo-2-phenyl-1′-propylspiro[chroman-4,4′-imidazol]-5′(1′H)-one], the half-inhibitory concentration (IC50) under setting [1] lay within 10000 to 50000 nM.

The compound `CN1C(=O)C2(CC(c3ccccc3)Oc3ccc(-c4ccncc4)cc32)N=C1N` (stereo not drawn) [Compound 58, 2′-amino-1′-methyl-2-phenyl-6-(pyridin-4-yl)spiro[chroman-4,4′-imidazol]-5′(1′H)-one] returned a concentration for half-maximal inhibition (IC50) of 10000 to 50000 nM.

On to `NC1=NC2(CC(c3ccccc3)Oc3ccc(Br)cc32)C(=O)N1CCC1CC1` (stereo not drawn) [Compound 59, 2′-amino-6-bromo-1′-(2-cyclopropylethyl)-2-phenylspiro[chroman-4,4′-imidazol]-5′(1′H)-one], for which the IC50 under setting [1] was in the range of 10000 to 50000 nM.

With `CN1C(=O)C2(CC(c3ccccc3)Oc3ccc(-c4cccc(C(=O)N5CCCC5)c4)cc32)N=C1N` (stereo not drawn) [Compound 61, 2′-amino-1′-methyl-2-phenyl-6-(3-(pyrrolidine-1-carbonyl)phenyl)spiro[chroman-4,4′-imidazol]-5′(1′H)-one], the IC50 is 10000 to 50000 nM.

The compound `CN1C(=O)C2(CC(c3ccccc3)Oc3ccc(-c4ccc(CNS(C)(=O)=O)cc4)cc32)N=C1N` (stereo not drawn) [Compound 62, N-(4-(2′-amino-1′-methyl-5′-oxo-2-phenyl-1′,5′-dihydrospiro[chroman-4,4′-imidazole]-6-yl)benzyl)methanesulfonamide] came in with an IC50 of 10000 to 50000 nM.

Regarding `CN1C(=O)C2(CC(c3ccccc3F)Oc3ccc(Br)cc32)N=C1N` (stereo not drawn) [Compound 63, 2′-amino-6-bromo-2-(2-fluorophenyl)-1′-methylspiro-[chroman-4,4′-imidazol]-5′(1′H)-one], the half-maximal inhibitory concentration (IC50) under setting [1] lay in the range of 10000 to 50000 nM.

For `Cc1ccc2c(c1)C1(CC(c3ccccc3)O2)N=C(N)N(C)C1=O` (stereo not drawn) [Compound 64, 2′-amino-1′,6-dimethyl-2-phenylspiro[chroman-4,4′-imidizol]-5′(1′H)-one], the concentration for half-maximal inhibition (IC50) under setting [1] lay within 10000 to 50000 nM.

Compound `CN1C(=O)C2(CC(c3ccccc3)Oc3ccc(-c4ccc(S(=O)(=O)N(C)C)cc4)cc32)N=C1N` (stereo not drawn) [Compound 65, 4-(2′-amino-1′-methyl-5′-oxo-2-phenyl-1′,5′-dihydrospiro[chroman-4,4′-imidazole]-6-yl)-N,N-dimethylbenzenesulfonamide] displayed an IC50 of 10000 to 50000 nM.

For `CN(C)C(=O)c1ccccc1-c1ccc2c(c1)C1(CC(c3ccccc3)O2)N=C(N)N(C)C1=O` (stereo not drawn) [Compound 66, 2-(2′-amino-1′-methyl-5′-oxo-2-phenyl-1′,5′-dihydrospiro[chroman-4,4′-imidazole]-6-yl)-N,N-dimethylbenzamide], the concentration for half-maximal inhibition (IC50) fell in the range of 10000 to 50000 nM.

`CN(C)C(=O)c1ccc(-c2ccc3c(c2)C2(CC(c4ccccc4)O3)N=C(N)N(C)C2=O)cc1` (stereo not drawn) [Compound 68, 4-(2′-amino-1′-methyl-5′-oxo-2-phenyl-1′,5′-dihydrospiro[chroman-4,4′-imidazole]-6-yl)-N,N-dimethylbenzamide] came in with an IC50 of 10000 to 50000 nM.

In the case of `CCN1C(=O)C2(CC(c3ccccc3)Oc3ccc(Br)cc32)N=C1N` (stereo not drawn) [Compound 69, 2′-amino-6-bromo-1′-ethyl-2-phenylspiro[chroman-4,4′-imidazol]-5′(1′H)-one], under setting [1], the IC50 is 10000 to 50000 nM.

The compound `CN1C(=O)C2(CC(c3ccccc3)Oc3ccc(-c4cccn4C(=O)OC(C)(C)C)cc32)N=C1N` (stereo not drawn) [Compound 70, tert-butyl 2-(2′-amino-1′-methyl-5′-oxo-2-phenyl-1′,5′-dihydrospiro[chroman-4,4′-imidazole]-6-yl)-1H-pyrrole-1-carboxylate] had a concentration for half-maximal inhibition (IC50) of 10000 to 50000 nM.

The compound `CCN(CC)C(=O)c1ccc(-c2ccc3c(c2)C2(CC(c4ccccc4)O3)N=C(N)N(C)C2=O)cc1` (stereo not drawn) [Compound 71, 4-(2′-amino-1′-methyl-5′-oxo-2-phenyl-1′,5′-dihydro-spiro[chroman-4,4′-imidazole]-6-yl)-N,N-diethylbenzamide] came in with an IC50 of 10000 to 50000 nM.

Consider `CN1C(=O)C2(CC3(CCCOC3)Oc3ccc(-c4cccc(C#N)c4)cc32)N=C1N` (stereo not drawn) [Compound 72], for which, under setting [1], the IC50 was 1 to 100 nM.

With `CN1C(=O)[C@@]2(C[C@]3(CCCOC3)Oc3ccc(-c4cccc(C#N)c4)cc32)N=C1N` [Compound 72a], the IC50 under setting [1] lay in the range of 1 to 100 nM.

For `CN1C(=O)[C@@]2(C[C@@]3(CCCOC3)Oc3ccc(-c4cccc(C#N)c4)cc32)N=C1N` [Compound 72b], the IC50 under setting [1] lay in the range of 100 to 500 nM.

Consider `CCC1CCC2(C1)CC1(N=C(N)N(C)C1=O)c1cc(-c3cccc(C#N)c3)ccc1O2` (stereo not drawn) [Compound 73], for which the half-maximal inhibitory concentration (IC50) under setting [1] lay in the range of 100 to 500 nM.

With `CC1CCC2(C1)CC1(N=C(N)N(C)C1=O)c1cc(-c3cccc(C#N)c3)ccc1O2` (stereo not drawn) [Compound 74], the IC50 under setting [1] lay within 100 to 500 nM.

Turning to `CC1CCC2(CC1)CC1(N=C(N)N(C)C1=O)c1cc(-c3cccc(C#N)c3)ccc1O2` (stereo not drawn) [Compound 75], the concentration for half-maximal inhibition (IC50) under setting [1] lay within 100 to 500 nM.

As to `CN1C(=O)C2(CC3(CCCCC3)Oc3ccc(-c4cccc(C#N)c4)cc32)N=C1N` (stereo not drawn) [Compound 76], the IC50 under setting [1] fell in the range of 100 to 500 nM.

As for `CN1C(=O)C2(CC3(CCOCC3)Oc3ccc(-c4cccc(C#N)c4)cc32)N=C1N` (stereo not drawn) [Compound 77], under setting [1], the concentration for half-maximal inhibition (IC50) is 100 to 500 nM.

Take `CN1C(=O)C2(CC3(CCCCCC3)Oc3ccc(-c4cccc(C#N)c4)cc32)N=C1N` (stereo not drawn) [Compound 78]: the IC50 under setting [1] fell in the range of 500 to 1000 nM.

Take `CN1C(=O)C2(CC3(CCCC3)Oc3ccc(-c4cccc(C#N)c4)cc32)N=C1N` (stereo not drawn) [Compound 79]: the half-maximal inhibitory concentration (IC50) under setting [1] was 500 to 1000 nM.

Regarding `CN1C(=O)C2(CC3(CCCCC3)Oc3ccc(-c4cccnc4)cc32)N=C1N` (stereo not drawn) [Compound 80], the IC50 under setting [1] was in the range of 1000 to 5000 nM.

In the case of `CN1C(=O)C2(CC3(CCCC(C(F)(F)F)C3)Oc3ccc(-c4cccc(C#N)c4)cc32)N=C1N` (stereo not drawn) [Compound 81], under setting [1], the IC50 lay in the range of 1000 to 5000 nM.

In the case of `CC1CCCC2(C1)CC1(N=C(N)N(C)C1=O)c1cc(-c3cccc(C#N)c3)ccc1O2` (stereo not drawn) [Compound 82], under setting [1], the IC50 is 1000 to 5000 nM.

On to `CC1CC(C)CC2(C1)CC1(N=C(N)N(C)C1=O)c1cc(-c3cccc(C#N)c3)ccc1O2` (stereo not drawn) [Compound 83], for which the half-maximal inhibitory concentration (IC50) under setting [1] fell in the range of 1000 to 5000 nM.

`CN1C(=O)C2(CC3(CCCCC3)Oc3ccc(-c4ccncc4)cc32)N=C1N` (stereo not drawn) [Compound 84]: under setting [1], the concentration for half-maximal inhibition (IC50) was 10000 to 50000 nM.

Regarding `CN1OC2(CC(C3CCCOC3)Oc3ccc(-c4cccc(C#N)c4)cc32)N=C1N` (stereo not drawn) [Compound 85, 3-(3′-amino-2′-methyl-2-(tetrahydro-2H-pyran-3-yl)-2′H-spiro[chroman-4,5′-[1,2,4]oxadiazole]-6-yl)benzonitrile], the half-inhibitory concentration (IC50) under setting [1] lay within 1 to 100 nM.

Consider `CN1OC2(CC(C3CCCOC3)Oc3ccc(-c4cc(F)cc(C#N)c4)cc32)N=C1N` (stereo not drawn) [Compound 86], for which the concentration for half-maximal inhibition (IC50) under setting [1] is 1 to 100 nM.

Turning to `CN1OC2(CC(C3CCCOC3)Oc3ccc(-c4cccc(Cl)c4)cc32)N=C1N` (stereo not drawn) [Compound 87], under setting [1], the IC50 lay within 100 to 500 nM.

With `CN1OC2(CC(C3CCOCC3)Oc3ccc(-c4cccc(C#N)c4)cc32)N=C1N` (stereo not drawn) [Compound 88, 3-(3′-amino-2′-methyl-2-(tetrahydro-2H-pyran-4-yl)-2′H-spiro[chroman-4,5′-[1,2,4]-oxadiazole]-6-yl)benzonitrile], the IC50 under setting [1] was in the range of 100 to 500 nM.

Consider `CN1OC2(C[C@@H](C3CCCOC3)Oc3ccc(-c4cccnc4F)cc32)N=C1N` (stereo partly drawn) [Compound 89a], for which the IC50 under setting [1] fell in the range of 100 to 500 nM.

For `CN1OC2(C[C@H](C3CCCOC3)Oc3ccc(-c4cccnc4F)cc32)N=C1N` (stereo partly drawn) [Compound 89b], under setting [1], the half-maximal inhibitory concentration (IC50) lay within 1000 to 5000 nM.

Regarding `CN1OC2(CC(C3CCCOC3)Oc3ccc(-c4cc(F)cc(F)c4)cc32)N=C1N` (stereo not drawn) [Compound 90, 6-(3,5-difluorophenyl)-2′-methyl-2-(tetrahydro-2H-pyran-3-yl)-2′H-spiro[chroman-4,5′-[1,2,4]oxadiazol]-3′-amine], under setting [1], the 50% inhibitory concentration (IC50) fell in the range of 100 to 500 nM.

For `COc1ccc(F)c(-c2ccc3c(c2)C2(CC(C4CCCOC4)O3)N=C(N)N(C)O2)c1` (stereo not drawn) [Compound 91], under setting [1], the 50% inhibitory concentration (IC50) fell in the range of 100 to 500 nM.

Turning to `COc1cccc(-c2ccc3c(c2)C2(CC(C4CCCOC4)O3)N=C(N)N(C)O2)c1F` (stereo not drawn) [Compound 92], the IC50 under setting [1] lay in the range of 100 to 500 nM.

In the case of `CN1OC2(CC(C3CCCOC3)Oc3ccc(-c4cccc(F)c4)cc32)N=C1N` (stereo not drawn) [Compound 93, 6-(3-fluorophenyl)-2′-methyl-2-(tetrahydro-2H-pyran-3-yl)-2′H-spiro[chroman-4,5′-[1,2,4]oxadiazol]-3′-amine], under setting [1], the IC50 lay within 500 to 1000 nM.

`CN1OC2(CC(C3CCOC3)Oc3ccc(-c4cccc(C#N)c4)cc32)N=C1N` (stereo not drawn) [Compound 94]: the 50% inhibitory concentration (IC50) under setting [1] fell in the range of 500 to 1000 nM.

For the origin of these results see patent US8450308B2 (Vitae Pharmaceuticals, Inc., priority 2008, dated 2013).
